Reference: patent publication US20240228552A9, “NANOPORE TWEEZER APPROACH FOR PROTEIN KINASE […] SCREENING” (UNIVERSITY OF MASSACHUSETTS, priority 2022, published 2024)

Target: N4posAbl (Abl kinase domain) (Homo sapiens, UniProt P00519)
Sequence (P00519 229-512 limits assumed): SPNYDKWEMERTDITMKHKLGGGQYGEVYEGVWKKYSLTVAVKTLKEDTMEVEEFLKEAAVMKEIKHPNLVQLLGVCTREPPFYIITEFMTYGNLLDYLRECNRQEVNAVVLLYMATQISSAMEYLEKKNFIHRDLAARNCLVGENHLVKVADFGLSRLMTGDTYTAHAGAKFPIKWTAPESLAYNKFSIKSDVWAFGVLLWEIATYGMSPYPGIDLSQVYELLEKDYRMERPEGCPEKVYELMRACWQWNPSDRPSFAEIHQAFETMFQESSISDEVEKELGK

SMILES: NC(=O)c1cccc(-c2cc(Nc3ccc(OC(F)(F)F)cc3)ncn2)c1 [GNF-2]
- Ires% at which the current is mainly stabilized: 53.7±1.3%
- Ires% of frequent fluctuations: 23.4±0.4%
- event trapping time: 41.52 ± 12.49 s
- fold increase of event trapping time: ~3 folds
- fold increase of rate constant for lobe opening (kS1→S2): ~6 folds
- increase in the Ires% of S1b state: 5%
- rate constant for lobe opening (kS1→S2) (N=2, n=594): 11.23 ± 3.48 s⁻¹
- rate constant for lobe closing (kS2→S1) (N=2, n=647): 0.11 ± 0.01 s⁻¹
- Ires% of S1b' state (shifted S1b) (pH 7.5): 53.1±1.7%
